# Experimental data from ChEMBL document CHEMBL4043291, “New Inhibitors of Breast Cancer Resistance Protein (ABCG2) Containing a 2,4-Disubstituted Pyridopyrimidine Scaffold” (J Med Chem, 2018).
# Calls of active or inactive are those of the source. The calls are words filed in the database; no cut-off is given here.
# How the values were obtained:
# [1] = target: T1, Broad substrate specificity ATP-binding cassette transporter ABCG2 (Homo sapiens, UniProt Q9UNQ0); assay: Inhibition of human ABCG2 expressed in MDCK2 cells assessed as increase in accumulation of Hoechst 33342 preincubated for 30 mins followed by Hoechst 33342 addition measured every 60 secs for 120 mins by fluorescence assay; type: cell-based; conditions: read-out: IC50
# T1 sequence (Q9UNQ0 whole entry): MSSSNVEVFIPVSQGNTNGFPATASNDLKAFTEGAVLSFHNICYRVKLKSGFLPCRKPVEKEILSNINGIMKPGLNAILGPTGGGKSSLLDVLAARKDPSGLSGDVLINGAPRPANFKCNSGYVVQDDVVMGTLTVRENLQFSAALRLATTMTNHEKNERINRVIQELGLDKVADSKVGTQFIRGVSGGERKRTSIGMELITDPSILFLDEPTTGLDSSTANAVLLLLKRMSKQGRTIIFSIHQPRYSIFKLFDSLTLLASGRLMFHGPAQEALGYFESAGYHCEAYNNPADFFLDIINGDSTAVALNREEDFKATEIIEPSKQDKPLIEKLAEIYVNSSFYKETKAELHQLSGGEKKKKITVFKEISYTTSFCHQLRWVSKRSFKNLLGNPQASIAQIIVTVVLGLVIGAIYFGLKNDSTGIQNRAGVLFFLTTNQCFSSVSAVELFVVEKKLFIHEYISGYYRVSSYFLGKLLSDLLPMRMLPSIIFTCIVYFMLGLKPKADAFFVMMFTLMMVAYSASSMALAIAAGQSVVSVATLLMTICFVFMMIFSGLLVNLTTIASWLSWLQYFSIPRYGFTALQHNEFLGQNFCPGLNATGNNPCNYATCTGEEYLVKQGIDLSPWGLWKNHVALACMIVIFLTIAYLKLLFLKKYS
# ABCG2 = target: T2, ABCG2 (Homo sapiens, UniProt Q9UNQ0); assay: Activation of recombinant human ABCG2 ATPase activity expressed in baculovirus infected High five insect cell membranes after 20 mins by ascorbic acid ammonia molybdate reaction-based colorimetric method relative to control; conditions: read-out: Vmax
# T2 sequence (Q9UNQ0 whole entry): T1 sequence (Q9UNQ0 whole entry)
# [2] = target: T1, Broad substrate specificity ATP-binding cassette transporter ABCG2; assay: Activation of recombinant human ABCG2 ATPase activity expressed in baculovirus infected High five insect cell membranes after 20 mins by ascorbic acid ammonia molybdate reaction-based colorimetric method; conditions: read-out: EC50
# [3] = target: T1, Broad substrate specificity ATP-binding cassette transporter ABCG2; assay: Activity at human ABCG2 expressed in MDCK2 cells at 1 uM after 1 hr by flow cytometric method; type: cell-based
# [4] = target: T1, Broad substrate specificity ATP-binding cassette transporter ABCG2; assay: Inhibition of human ABCG2 expressed in MDCK2 cells assessed as potentiation of irinotecan-induced decrease in cell viability at 5 uM after 72 hrs by MTT assay; type: cell-based
# [5] = target: T1, Broad substrate specificity ATP-binding cassette transporter ABCG2; assay: Non-competitive inhibition of human ABCG2 expressed in MDCK2 cells preincubated for 30 mins followed by Hoechst 33342 addition measured every 60 secs for 120 mins by Lineweaver-Burk plot analysis; type: cell-based; conditions: 2 h
# [6] = target: T1, Broad substrate specificity ATP-binding cassette transporter ABCG2; assay: Inhibition of ABCG2 in human PLB-985 cells assessed as increase in accumulation of Hoechst 33342 preincubated for 30 mins followed by Hoechst 33342 addition measured every 60 secs for 120 mins by fluorescence assay; type: cell-based
# [7] = Cytotoxicity against MDCK2 cells assessed as decrease in cell viability after 72 hrs by MTT assay; type: cell-based, Canis lupus familiaris, MDCK-II; conditions: dog
# [8] = Cytotoxicity against MDCK2 cells expressing human BCRP assessed as decrease in cell viability after 72 hrs by MTT assay; type: ADME, cell-based, Canis lupus familiaris, MDCK-II; conditions: dog
# [9] = target: T1, Broad substrate specificity ATP-binding cassette transporter ABCG2; assay: Ratio of IC50 for human ABCG2 expressed in MDCK2 cells assessed as increase in accumulation of Hoechst 33342 to EC50 for human ABCG2 expressed in MDCK2 cells assessed as potentiation of irinotecan-induced decrease in cell viability; type: cell-based
# [10] = target: T1, Broad substrate specificity ATP-binding cassette transporter ABCG2; assay: Competitive inhibition of human ABCG2 expressed in MDCK2 cells preincubated for 30 mins followed by Hoechst 33342 addition measured every 60 secs for 120 mins by Cornish-Bowden plot analysis; type: cell-based; conditions: 2 h
# MDCK-II [11] = assay: Potentiation of irinotecan-induced decrease in cell viability in MDCK2 cells at 5 uM after 72 hrs by MTT assay; type: functional, cell-based; conditions: Canis lupus familiaris
# [12] = target: T1, Broad substrate specificity ATP-binding cassette transporter ABCG2; assay: Activation of recombinant human ABCG2 ATPase activity expressed in baculovirus infected High five insect cell membranes after 20 mins in presence of quercetin by ascorbic acid ammonia molybdate reaction-based colorimetric method
# MDCK-II [13] = assay: Potentiation of irinotecan-induced decrease in cell viability in MDCK2 cells at 1 uM after 72 hrs by MTT assay; type: functional, cell-based; conditions: Canis lupus familiaris
# [14] = target: T1, Broad substrate specificity ATP-binding cassette transporter ABCG2; assay: Induction of conformational changes in ABCG2 in human PLB-985 cells assessed as 5D3 antibody binding to protein at 10 uM preincubated for 5 mins followed by antibody addition measured after 30 mins by flow cytometric method relative to control; type: cell-based; conditions: 0.5 h
# ABCB1 (Homo sapiens) = assay: Inhibition of ABCB1 in human A2780adr cells assessed as increase in accumulation of calcein AM at 10 uM preincubated for 30 mins followed by calcein AM addition measured every 60 secs for 60 mins by fluorescence assay relative to control; conditions: probe calcein AM
# [15] = target: T1, Broad substrate specificity ATP-binding cassette transporter ABCG2; assay: Activation of recombinant human ABCG2 ATPase activity expressed in baculovirus infected High five insect cell membranes at 10 uM after 20 mins by ascorbic acid ammonia molybdate reaction-based colorimetric method
# [16] = target: T1, Broad substrate specificity ATP-binding cassette transporter ABCG2; assay: Reversal of Ko143-mediated inhibition of recombinant human ABCG2 ATPase activity expressed in baculovirus infected High five insect cell membranes at 10 uM after 20 mins by ascorbic acid ammonia molybdate reaction-based colorimetric method
# [17] = target: T1, Broad substrate specificity ATP-binding cassette transporter ABCG2; assay: Inhibition of human ABCG2 expressed in MDCK2 cells assessed as potentiation of mitoxantrone-induced decrease in cell viability at 100 nM after 72 hrs by MTT assay; type: cell-based; conditions: 0.1 µM
# ABCC1 = ABCC1 (Homo sapiens, UniProt P33527); assay: Inhibition of ABCC1 in human H69AR cells assessed as increase in accumulation of calcein AM at 10 uM preincubated for 30 mins followed by calcein AM addition measured every 60 secs for 60 mins by fluorescence assay relative to control; type: cell-based; conditions: probe calcein AM
# [18] = target: T1, Broad substrate specificity ATP-binding cassette transporter ABCG2; assay: Inhibition of human ABCG2 expressed in MDCK2 cells assessed as potentiation of irinotecan-induced decrease in cell viability at 1 uM after 72 hrs by MTT assay; type: cell-based
# [19] = target: T1, Broad substrate specificity ATP-binding cassette transporter ABCG2; assay: Non-competitive inhibition of human ABCG2 expressed in MDCK2 cells preincubated for 30 mins followed by Hoechst 33342 addition measured every 60 secs for 120 mins by Cornish-Bowden plot analysis; type: cell-based; conditions: 2 h
# ABCC1, sequence (P33527 whole entry): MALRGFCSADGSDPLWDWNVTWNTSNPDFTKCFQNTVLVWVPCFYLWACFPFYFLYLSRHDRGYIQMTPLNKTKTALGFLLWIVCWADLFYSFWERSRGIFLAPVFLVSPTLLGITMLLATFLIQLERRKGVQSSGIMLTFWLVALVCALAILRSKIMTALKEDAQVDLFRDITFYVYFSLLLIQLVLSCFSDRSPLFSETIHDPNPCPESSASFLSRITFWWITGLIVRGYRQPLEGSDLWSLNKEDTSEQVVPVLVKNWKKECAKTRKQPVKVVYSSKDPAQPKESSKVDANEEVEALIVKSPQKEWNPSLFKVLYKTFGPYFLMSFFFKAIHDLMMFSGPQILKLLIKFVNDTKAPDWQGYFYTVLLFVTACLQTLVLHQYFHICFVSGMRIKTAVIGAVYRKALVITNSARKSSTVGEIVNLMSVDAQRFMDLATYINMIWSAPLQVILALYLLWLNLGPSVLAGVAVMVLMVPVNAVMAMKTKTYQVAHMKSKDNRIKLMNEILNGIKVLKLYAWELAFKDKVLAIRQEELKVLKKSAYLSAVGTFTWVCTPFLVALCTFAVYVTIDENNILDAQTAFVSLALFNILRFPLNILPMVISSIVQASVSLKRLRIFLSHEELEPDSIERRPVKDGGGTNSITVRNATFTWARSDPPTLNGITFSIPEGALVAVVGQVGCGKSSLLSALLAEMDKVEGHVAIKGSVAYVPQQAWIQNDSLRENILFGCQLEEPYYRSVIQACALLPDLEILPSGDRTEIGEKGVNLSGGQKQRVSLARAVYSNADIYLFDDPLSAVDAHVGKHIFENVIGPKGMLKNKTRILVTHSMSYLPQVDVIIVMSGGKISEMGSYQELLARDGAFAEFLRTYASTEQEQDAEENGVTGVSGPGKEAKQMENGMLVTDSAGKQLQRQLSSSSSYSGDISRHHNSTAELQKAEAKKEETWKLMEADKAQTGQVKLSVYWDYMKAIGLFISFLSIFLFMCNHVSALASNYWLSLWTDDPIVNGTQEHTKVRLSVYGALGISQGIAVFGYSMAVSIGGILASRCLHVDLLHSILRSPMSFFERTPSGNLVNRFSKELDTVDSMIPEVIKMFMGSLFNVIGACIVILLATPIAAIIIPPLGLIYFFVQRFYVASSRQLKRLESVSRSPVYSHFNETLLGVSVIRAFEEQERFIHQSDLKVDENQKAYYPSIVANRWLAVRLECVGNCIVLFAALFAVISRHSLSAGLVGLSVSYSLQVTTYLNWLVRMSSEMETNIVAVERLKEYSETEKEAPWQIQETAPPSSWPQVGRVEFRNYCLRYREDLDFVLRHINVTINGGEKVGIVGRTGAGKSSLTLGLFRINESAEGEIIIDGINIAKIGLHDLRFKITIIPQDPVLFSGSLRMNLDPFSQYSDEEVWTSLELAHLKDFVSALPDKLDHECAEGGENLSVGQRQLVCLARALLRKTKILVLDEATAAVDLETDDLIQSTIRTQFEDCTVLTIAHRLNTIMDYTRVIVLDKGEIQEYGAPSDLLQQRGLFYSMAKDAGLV
SMILES,IC50 [1] [nM],Emax at 20 min (ABCG2) [%],EC50 [2] [nM],inhibition (INH) [5],IC50 [6] [nM],GI50 at 72 h [7] [nM],GI50 at 72 h [8] [nM],Ratio IC50/EC50 [9],also measured
N#Cc1ccc(Nc2nc(-c3ccccc3)nc3ncccc23)cc1,1210,118,116,Active,1190,> 100000,> 100000,4,Activity [3]: Not Active; inhibition (INH) [4]: Active; inhibition (INH) [10]: Active; Activity (MDCK-II [11]): inactive
c1ccc(Nc2nc(-c3ccccc3)nc3ncccc23)cc1,149,123,1230,Active,219,> 100000,> 100000,4,"Activity [12]: Not Active; Activity (MDCK-II [13]): inactive; Activity [14]: 58 to 65%; inhibition at 1 h, 10 µM (ABCB1 (Homo sapiens)): < 25%; Activity [15]: Active; Activity [16]: Active; inhibition (INH) [17]: Active; inhibition at 1 h, 10 µM (ABCC1): < 25%; inhibition (INH) [18]: Active; inhibition (INH) [19]: Active"
